Reference: patent US11999746B2, “Compounds” (GlaxoSmithKline Intellectual Property Development Limited, priority 2014, dated 2024)

Legend:
Lp-PLA2 in human plasma = target: T1, Lp-PLA2 in human plasma (Homo sapiens, UniProt Q13093); experiment: (3a) Lp-PLA2 human plasma Thio-PAF assay; assay type: biochemical; details: (3a) Thio-PAF assay, pooled human plasma; Examples 1-265 and 413-430 were tested here; read-out: pIC50 in the Lp-PLA2 human plasma assay (converted)
T1 construct: from tissue; host or cells: pooled human plasma
T1 sequence (Q13093 22-441): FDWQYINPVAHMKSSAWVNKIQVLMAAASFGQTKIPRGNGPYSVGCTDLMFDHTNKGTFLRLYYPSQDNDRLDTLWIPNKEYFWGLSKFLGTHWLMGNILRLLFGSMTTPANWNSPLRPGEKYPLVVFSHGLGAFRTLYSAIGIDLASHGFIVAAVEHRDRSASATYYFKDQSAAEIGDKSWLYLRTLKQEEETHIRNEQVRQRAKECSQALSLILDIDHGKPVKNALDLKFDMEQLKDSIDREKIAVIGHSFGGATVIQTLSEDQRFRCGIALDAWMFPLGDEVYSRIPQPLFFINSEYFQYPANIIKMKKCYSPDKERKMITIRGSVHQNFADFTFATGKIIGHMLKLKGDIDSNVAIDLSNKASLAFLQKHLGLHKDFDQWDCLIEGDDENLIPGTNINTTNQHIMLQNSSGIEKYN
Summary of the method: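 Pooled human plasma preincubated 30 min with serially diluted compound, then given 2-thio-PAF substrate with CPM and NEM in 50 mM HEPES pH 7.4, 150 mM NaCl, 1 mM CHAPS. Reaction quenched with TFA after 2 min; CPM thiol-adduct fluorescence read at ex 380/em 485 after 40 min; pIC50 reported.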

[1] = target: T2, recombinant human Lp-PLA2 (Homo sapiens, UniProt Q13093); experiment: (1a) PED6 assay, recombinant human Lp-PLA2 (rhLp-PLA2); assay type: biochemical; details: Examples 1-167 and 413-430 were tested here, one experiment or average of multiple experiments, read-out: rhLp-PLA2 (pIC50) (converted)
T2 sequence (Q13093 22-441): T1 sequence (Q13093 22-441)
Summary of the method: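 PED6 (2 μM final after 1:1 addition of 4 μM stock) cleavage by rhLp-PLA2 (4 nM working solution) in 50 mM HEPES pH 7.4, 150 mM NaCl, 1 mM CHAPS; compounds preincubated with enzyme 30 minutes, reaction 20 min at room temperature. Fluorescence at ex 480/em 540; pIC50 from curve fit.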

| SMILES | IC50 (Lp-PLA2 in human plasma) [nM] | IC50 [1] [nM] |
| --- | --- | --- |
| O=c1nc(OCc2ccc(Oc3cnc(C(F)(F)F)nc3)c(F)c2)cc2n1CC1CCCCN21 (stereo not drawn) [Example E46, 3-((3-Fluoro-4-((2-(trifluoromethyl)pyrimidin-5-yl)oxy)benzyl)oxy)-6,7,8,9,9a,10-hexahydro-1H-pyrido[1′,2′:3,4]imidazo[1,2-c]pyrimidin-1-one] | ≤ 100 | ≤ 1 |
| O=c1nc(OCc2cc(F)c(F)c(F)c2)cc2n1C[C@H]1CCCCN21 [Example E54, (R)-3-((3,4,5-Trifluorobenzyl)oxy)-6,7,8,9,9a,10-hexahydro-1H-pyrido[1′,2′:3,4]imidazo[1,2-c]pyrimidin-1-one] | ≤ 100 | ≤ 100 |
| N#Cc1cc(COc2cc3n(c(=O)n2)C[C@@H]2CCCN32)ccc1Oc1cccc(F)c1 [Example E86, (S)-2-(3-fluorophenoxy)-5-(((1-oxo-1,6,7,8,8a,9-hexahydropyrrolo[1′,2′:3,4]imidazo[1,2-c]pyrimidin-3-yl)oxy)methyl)benzonitrile] | ≤ 10000 | ≤ 100 |
| N#Cc1cc(COc2cc3n(c(=O)n2)CC2CCCN32)ccc1Oc1cc(F)cc(F)c1 (stereo not drawn) [Example E87, 2-(3,5-Difluorophenoxy)-5-(((1-oxo-1,6,7,8,8a,9-hexahydropyrrolo[1,2′:3,4]imidazo[1,2-c]pyrimidin-3-yl)oxy)methyl)benzonitrile] | ≤ 100 | ≤ 1 |
| O=c1nc(OCc2cc(F)c(Oc3ccnc(C(F)(F)F)c3)c(F)c2)cc2n1CC1CCCCN21 (stereo not drawn) [Example E37, 3-((3,5-difluoro-4-((2-(trifluoromethyl)pyridin-4-yl)oxy)benzyl)oxy)-6,7,8,9,9a,10-hexahydro-1H-pyrido[1′,2′:3,4]imidazo[1,2-c]pyrimidin-1-one] | ≤ 100 | ≤ 1 |
| O=c1nc(OCc2cc(F)c(Oc3cccc(C(F)(F)F)c3)c(F)c2)cc2n1C[C@@H]1CCCN21 [Example E83, (S)-3-((3,5-difluoro-4-(3-(trifluoromethyl)phenoxy)benzyl)oxy)-7,8,8a,9-tetrahydropyrrolo[1′,2′:3, 4]imidazo[1,2-c]pyrimidin-1(6H)-one] | ≤ 100 | ≤ 1 |
| CN1c2cc(OCc3ccc(F)cc3F)nc(=O)n2CC12CCCCC2 [Example 427, 7′4(2,4-difluorobenzyhoxy)-1-methyl-1H-spiro[cyclohexane-1,2′-imidazo[1,2-c]pyrimidin]-5′(3′H)-one] | ≤ 10000 | ≤ 100 |
| O=c1nc(OCc2cc(F)c(Oc3ccnc(Cl)c3)c(F)c2)cc2n1CC1CCCCN21 (stereo not drawn) [Example E26, 3-((4-((2-Chloropyridin-4-yl)oxy)-3,5-difluorobenzyl)oxy)-6,7,8,9,9a,10-hexahydro-1H-pyrido[1,2′:3,4]imidazo[1,2-c]pyrimidin-1-one] | ≤ 100 | ≤ 1 |
| CN1c2cc(OCc3cc(F)c(F)c(F)c3)nc(=O)n2CC12CCC2 [Example 423, 1′-methyl-7′-((3,4,5-trifluorobenzyl)oxy)-1′H-spiro[cyclobutane-1,2′-imidazo[1,2-c]pyrimidin]-5′(3′H)-one] | ≤ 100 | ≤ 100 |
| O=c1nc(OCc2ccc(Oc3ccnc(C(F)(F)F)c3)c(F)c2)cc2n1C[C@@H]1CCCCN21 [Example E40, (S)-3-((3-Fluoro-4-((2-(trifluoromethyl)pyridin-4-yl)oxy)benzyl)oxy)-6,7,8,9,9a,10-hexahydro-1H-pyrido[1′,2′:3,4]imidazo[1,2-c]pyrimidin-1-one] | ≤ 100 | ≤ 1 |
| O=c1nc(OCc2cccc(F)c2F)cc2n1C[C@H]1CCCCN21 [Example E56, (R)-3-((2,3-Difluorobenzyl)oxy)-6,7,8,9,9a,10-hexahydro-1H-pyrido[1′,2′:3,4]imidazo[1,2-c] pyrimidin-1-one] | ≤ 10000 | ≤ 100 |

More lines, now with the values ahead:

| IC50 (Lp-PLA2 in human plasma) [nM] | IC50 [1] [nM] | SMILES |
| --- | --- | --- |
| ≤ 10000 | ≤ 100 | Cn1cc(Oc2c(F)cc(COc3cc4n(c(=O)n3)C[C@@H]3CCOCN43)cc2F)cn1 [Example E136, (S)-3-((3,5-difluoro-4-((1-methyl-1H-pyrazol-4-yl)oxy)benzyl)oxy)-8,9,9a,10-tetrahydropyrimdo[6′,1′:2,3]imidazo[1,5-c][1,3]oxazin-1(6H)-one] |
| ≤ 10000 | ≤ 100 | Cn1cc(Oc2c(F)cc(COc3cc4n(c(=O)n3)C[C@H]3COCN43)cc2F)cn1 [Example E143, (S)-6-((3,5-difluoro-4-((1-methyl-1H-pyrazol-4-yl)oxy)benzyl)oxy)-10,10a-dihydro-1H-oxazolo[3′,4′:3,4]imidazo[1,2-c]pyrimidin-8(3H)-one] |
| ≤ 100 | ≤ 1 | Cc1ccc(Oc2c(F)cc(COc3cc4n(c(=O)n3)C[C@@H]3COCCN43)cc2F)cn1 [Example E118, (R)-7-((3,5-difluoro-4-((6-methylpyridin-3-yl)oxy)benzyl)oxy)-3,4,11,11atetrahydropyrimido[6′,1′:2,3]imidazo[5,1-c][1,4]oxazin-9(1H)-one] |
| ≤ 10000 | ≤ 100 | O=c1nc(OCc2ccc(F)cc2F)cc2n1C[C@H]1COCCN21 [Example E126, (S)-7-((2,4-difluorobenzyl)oxy)-3,4,11,11a-tetrahydropyrimido[6′,1′:2,3]imidazo[5,1-c][1,4] oxazin-9(1H)-one] |
| ≤ 10000 | ≤ 100 | O=c1nc(OCc2cc(F)c(CCCF)c(F)c2)cc2n1CC1CCCN21 (stereo not drawn) [Example E99, 3-((3,5-Difluoro-4-(3-fluoropropyl)benzyl)oxy)-7,8,8a,9-tetrahydropyrrolo[1′,2′:3,4] imidazo[1,2-c]pyrimidin-1(6H)-one] |
| ≤ 10000 | ≤ 1 | N#Cc1cc(COc2cc3n(c(=O)n2)C[C@@H]2CCCN32)ccc1Oc1cc(F)cc(F)c1 [Example E88, (S)-2-(3,5-difluorophenoxy)-5-(((1-oxo-1,6,7,8,8a,9-hexahydropyrrolo[1′,2′:3,4]imidazo[1,2-c]pyrimidin-3-yl)oxy)methyl)benzonitrile] |
| ≤ 10000 | ≤ 100 | O=c1nc(OCc2cccc(F)c2)cc2n1C[C@H]1CCCN21 [Example E102, (R)-3-((3-fluorobenzyl)oxy)-7,8,8a,9-tetrahydropyrrolo[1′,2′:3,4]imidazo[1,2-c]pyrimidin-1(6H)-one] |
| ≤ 100 | 0.0316 | O=c1nc(OCc2cc(F)c(Oc3ccnc(C(F)(F)F)c3)c(F)c2)cc2n1C[C@H]1COCCN21 [Example E113, (S)-7-((3,5-difluoro-4-((2-(trifluoromethyl)pyridin-4-yl)oxy)benzyl)oxy)-3,4, 11, 11a tetrahydropyrimido[6′,1′:2,3]imidazo[5,1-c][1,4]oxazin-9(1H)-one] |
| ≤ 100 | ≤ 1 | O=c1nc(OCc2cc(F)c(Oc3ccnc(C(F)(F)F)c3)c(F)c2)cc2n1CC1OCCCN21 (single isomer, unassigned) [Example E162, 7-((3,5-difluoro-4-((2-(trifluoromethyl)pyridin-4-yl)oxy)benzyl)oxy)-3,4,11,11a-tetrahydropyrimido[6′,1′:2,3]imidazo[5,1-b][1,3]oxazin-9(2H)-one] |
| ≤ 100 | ≤ 1 | O=c1nc(OCc2cc(F)c(Oc3cnn(C(F)(F)F)c3)c(F)c2)cc2n1C[C@H]1COCN21 [Example E151, (S)-6-((3,5-difluoro-4-((1-(trifluoromethyl)-1H-pyrazol-4-yl)oxy)benzyl)oxy)-10,10a-dihydro-1H-oxazolo[3′,4′:3,4]imidazo[1,2-c]pyrimidin-8(3H)-one] |
| ≤ 100 | ≤ 1 | O=c1nc(OCc2cc(F)c(Oc3ccnc(C(F)(F)F)c3)c(F)c2)cc2n1C[C@@H]1CCOCN21 [Example E134, (S)-3-((3,5-difluoro-4-((2-(trifluoromethyl)pyridin-4-yl)oxy)benzyl)oxy)-8,9,9a,10-tetrahydropyrimido[6′,1′:2,3]imidazo[1,5-c][1,3]oxazin-1(6H)-one] |
| ≤ 100 | ≤ 100 | CCCn1cc(Oc2c(F)cc(COc3cc4n(c(=O)n3)C[C@H]3COCN43)cc2F)cn1 [Example E150, (S)-6-((3,5-difluoro-4-((1-propyl-1H-pyrazol-4-yl)oxy)benzyl)oxy)-10,10a-dihydro-1H-oxazolo[3′,4′:3,4]imidazo[1,2-c]pyrimidin-8(3H)-one] |
| ≤ 10000 | ≤ 100 | O=c1nc(OCc2cc(F)c(Oc3ccnc(C(F)(F)F)c3)c(F)c2)cc2n1CC1OCCCN21 (single isomer, unassigned) [Example E163, 7-((3,5-difluoro-4-((2-(trifluoromethyl)pyridin-4-yl)oxy)benzyl)oxy)-3,4,11,11a-tetrahydropyrimido[6′,1′:2,3]imidazo[5,1-b][1,3]oxazin-9(2H)-one] |
